Source: patent publication US20110212106A1, “HIV-1 NE[…] USES THEREOF” (priority 2010, published 2011)
Values joined by “and” are separate entries in the source; they are usually repeats but may differ in a detail not shown here. Equal entries are not always repeated. Where two headings read alike, the source gives them in different places.

What was measured:
[1] = system: HIV-1 pseudoviruses in TZM-bl cells; details: for IC50: Table 7, TZMbl
gp120 binding to sCD4 = details: inhibition of sCD4 binding
Description: Shown is mean±SD of triplicates.
The ability of mAbs to inhibit binding of sCD4 to gp120 or gp140 was evaluated by ELISA. Serial dilutions of mAbs were pre-incubated with gp120 (or gp140) and added to plates pre-coated with sCD4. After 1 h plates were washed and incubated with sheep polyclonal antibody D7324 (Aalto Bio-Reagents) followed by washing, incubation with AP-conjugated rabbit anti-sheep IgG antibody (Abcam, Cambridge, UK), extensive washing and detection using p-NPP (Sigma) as substrate.

[2] = system: HIV-1 pseudoviruses in HOS-CD4-CCR5 cells; details: for IC50: Table 7, HOS
Description: To measure the neutralization activity of the isolated mAbs, luciferase-encoding virions pseudotyped with the desired HIV-1 Env proteins were used in a single-cycle infectivity assay, as previously described (Gorny M K, et al. (2002) J Virol 76: 9035-9045). Briefly, appropriate dilutions of the virion-containing culture supernatants were pre-incubated at 37° C. for 1 h with mAbs at various concentrations. The virus-mAb mixtures were added to HOS-CD4-CCR5 cells and incubated for 3 days at 37° C. A similar protocol was used for supernatants screening using TZM-bl cells (Li M, et al. (2006) J Virol 80: 11776-11790). The cells were then lysed with Britelite reagent (Perkin-Elmer) and the relative light units in the cell lysates were determined on a luminometer microplate reader (Veritas, Turner Biosystems). The 50% inhibitory dose (IC50) was defined as the sample concentration at which relative luminescence units were reduced 50% compared to virus control wells.
The neutralizing activity of the mAbs was measured using 20 pseudotyped HIV-1 primary isolate envs characterized by different sensitivity to neutralization (Li M, et al. (2005) J Virol 79: 10108-10125; Li M, et al. (2006) J Virol 80: 11776-11790). The mAbs were tested at a fixed concentration (100 μg/ml) in the luciferase based neutralization assay using HOS-CD4.R5 as target cells.

[3] = system: primary replication competent HIV-1 isolates

Substance: HJ16: human mAb from clade C donor, CD4 binding site proximal epitope; VH SEQ ID NO: 13, VL SEQ ID NO: 14
- Percentage of HIV-1 isolates neutralized ([1]; All (92)): 36%
- Neutralization TZM-bl (number of isolates neutralized) ([1]; TZM-bl based assay, isolates neutralized/isolates tested): 33/92
- Percentage of HIV-1 isolates neutralized ([1]; Tier 1 (10)): 10%
- Percentage of HIV-1 isolates neutralized ([1]; Tier 1 + Tier 2, Clade A (8)): 25%
- Percentage of HIV-1 isolates neutralized ([1]; Tier 1 + Tier 2, Clade AD (1)): 100%
- Percentage of HIV-1 isolates neutralized ([1]; Tier 1 + Tier 2, Clade AG (16)): 50%
- Percentage of HIV-1 isolates neutralized ([1]; Tier 1 + Tier 2, Clade B (29)): 34%
- Percentage of HIV-1 isolates neutralized ([1]; Tier 1 + Tier 2, Clade BC (11)): 45%
- Percentage of HIV-1 isolates neutralized ([1]; Tier 1 + Tier 2, Clade C (26)): 27%
- Percentage of HIV-1 isolates neutralized ([1]; Tier 1 + Tier 2, Clade G (1)): 0%
- Percentage of HIV-1 isolates neutralized ([1]; Tier 2 (82)): 39%
- Percentage of HIV-1 isolates neutralized ([1]; Tier 2, Clade A (5)): 20%
- Percentage of HIV-1 isolates neutralized ([1]; Tier 2, Clade AD (1)): 100%
- Percentage of HIV-1 isolates neutralized ([1]; Tier 2, Clade AG (16)): 50%
- Percentage of HIV-1 isolates neutralized ([1]; Tier 2, Clade B (24)): 42%
- Percentage of HIV-1 isolates neutralized ([1]; Tier 2, Clade BC (11)): 45%
- Percentage of HIV-1 isolates neutralized ([1]; Tier 2, Clade C (24)): 29%
- Percentage of HIV-1 isolates neutralized ([1]; Tier 2, Clade G (1)): 0%
- Tier-2 isolates neutralized by HJ16 that were not neutralized by b12 ([1]; of 32 neutralized): 22/32
- Tier-1 viruses neutralized ([1]; panel of 10 Tier-1 isolates): 1 out of 10 and 1/10
- Tier-2 pseudoviruses neutralized ([1]; panel of 82 Tier-2 isolates): 32/82
- Cross-competition with: sCD4 (gp120 binding to sCD4): + (+,90-100% inhibition)
- Neutralization HOS (number of isolates neutralized) ([2]; HOS-based assay, isolates neutralized/isolates tested): 10/20
- pseudoviruses neutralized out of the 20 pseudoviruses ([2]; mAb at fixed concentration 100 μg/ml): 10
- plateau of heterologous inhibition in cross-competition of HJ16 and b12 (gp120; binding to immobilized gp120): approximately 80%
- Cross-competition with: 2G12 (gp120; inhibition of biotinylated mAb 2G12 binding to immobilized gp120): − (−, <50% inhibition)
- Cross-competition with: HGA9 (gp120; inhibition of biotinylated mAb HGA9 binding to immobilized gp120): − (−, <50% inhibition)
- Cross-competition with: HJ16 (gp120; inhibition of biotinylated mAb HJ16 binding to immobilized gp120): + (+,90-100% inhibition)

Substance: enfuvirtide
- IC50 ([3]; 92BR025, clade C): < 16 nM
- IC90 ([3]; 92BR025, clade C): 29 nM
- IC50 ([3]; 92RW009, clade A): < 16 nM
- IC90 ([3]; 92RW009, clade A): 44 nM
- IC50 ([3]; 92UG024, clade D): 16 nM
- IC90 ([3]; 92UG024, clade D): 48 nM
- IC50 ([3]; J213, clade B): 35 nM
- IC90 ([3]; J213, clade B): 192 nM
- IC50 ([3]; MN(P), clade B): 39 nM
- IC90 ([3]; MN(P), clade B): 63 nM
- IC50 ([3]; QH0692, clade B): 78 nM
- IC90 ([3]; QH0692, clade B): 207 nM
- IC50 ([3]; VI 191, clade A): 32 nM
- IC90 ([3]; VI 191, clade A): 56 nM
- IC50 ([1]; 96ZM651.2, clade C): 8.9 nM
- IC50 ([1]; 263-8, clade AG): < 2.23 nM
- IC50 ([1]; AC10.0.29, clade B): 6.68 nM
- IC50 ([1]; BaL.26, clade B): 6.68 nM
- IC50 ([1]; CAP210.2.00.E8, clade C): 13.4 nM
- IC50 ([1]; CH064.20, clade BC): < 2.23 nM
- IC50 ([1]; CH110.2, clade BC): < 2.23 nM
- IC50 ([1]; CH181.12, clade BC): < 2.23 nM
- IC50 ([1]; Du151.2, clade C): < 2.23 nM
- IC50 ([1]; Q168.a2, clade AD): 8.9 nM
- IC50 ([1]; Q461.e2, clade A): 6.68 nM
- IC50 ([1]; Q769.d22, clade A): 20 nM
- IC50 ([1]; RHPA4259.7, clade B): 8.9 nM
- IC50 ([1]; SF162, clade B): 20 nM
- IC50 ([1]; SS1196.1, clade B): 4.45 nM
- IC50 ([1]; T257-31, clade AG): < 2.23 nM
- IC50 ([1]; ZM53M.PB12, clade C): < 2.23 nM
- IC50 ([1]; ZM214M.PL15, clade C): 17.8 nM
- IC50 ([2]; 96ZM651.2, clade C): 0.6 nM
- IC50 ([2]; 263-8, clade AG): 0.04 nM
- IC50 ([2]; AC10.0.29, clade B): 1.2 nM
- IC50 ([2]; BaL.26, clade B): 1.4 nM
- IC50 ([2]; CAP210.2.00.E8, clade C): 6 nM
- IC50 ([2]; CH064.20, clade BC): 0.7 nM
- IC50 ([2]; CH110.2, clade BC): 0.335 nM
- IC50 ([2]; CH181.12, clade BC): 1.8 nM
- IC50 ([2]; Du151.2, clade C): 0.6 nM
- IC50 ([2]; JR-FL, clade B): 1.9 nM
- IC50 ([2]; MW965.26, clade C): 0.6 nM
- IC50 ([2]; Q168.a2, clade AD): 5.7 nM
- IC50 ([2]; Q461.e2, clade A): 1.6 nM
- IC50 ([2]; Q769.d22, clade A): 1.7 nM
- IC50 ([2]; RHPA4259.7, clade B): 1.9 nM
- IC50 ([2]; SF162, clade B): 6.8 nM
- IC50 ([2]; SS1196.1, clade B): 0.9 nM
- IC50 ([2]; T257-31, clade AG): 2.76 nM
- IC50 ([2]; ZM53M.PB12, clade C): 6.1 nM
- IC50 ([2]; ZM214M.PL15, clade C): 4.42 nM
